Measurements as given in patent US11866459B2, “Cocrystal of progesterone and preparation method and use thereof” (NATIONAL INSTITUTES FOR FOOD AND DRUG CONTROL, priority 2020, dated 2024).
Where a name gives a salt, the structure may show the parent alone. Read-outs that look alike come from different tables or passages of the source.

Tests used:
[1] = system: Female immature white rabbits; assay: Pharmacodynamic experiment of cocrystals of progesterone: rabbit body weight and uterine index; format: in vivo; details: for Uterine index (weight of uterus / weight of rabbit): x ± s
Procedure: Female immature white rabbits were used and randomly divided into blank group, positive control group, low dose group, medium dose group and high dose group, with 10 rabbits in each group. The dose of progesterone that should be given to each rabbit is twice the clinical human dose of progesterone, and is calculated according to the rabbit's body weight. […] The intramuscular injections were performed for a consecutive 30 days. Weighing was performed on day 1 and day 30 respectively. A part of the uterine tissue 2 cm from the junction of the uterus and vagina in the direction of the ovary was cut and weighed. The uterine index was calculated by dividing the weight of the uterus by the weight of each rabbit.

in vitro = details: PAMPA; for permeability level compared with metoprolol / permeation rate relative to the progesterone monomer: pH 6.8
Procedure: (§1) The present invention involves the following detection instruments: • Single-crystal X-ray diffractometer: Bruker P4, Mo target, \ω scan, 296.15K; • Fourier infrared spectrometer: PerkinElmer Frontier FT/IR Spectrometer, normal temperature, KBr pellets, wavelength of 4000 to 450 cm^−1; • Powder X-ray diffractometer: Rigaku D/max-25509 kw, CuKα radiation, graphite monochromator; • Differential scanning calorimetry analyzer: Mettler Toledo DSC 822e, heating rate of 10° C./min, nitrogen flow rate of 50 mL/min; • Dynamic vapour sorption analyzer: SMS DVS advantage, 25° C.; • Dissolution apparatus: Tianjin Tianda Tianfa Technology Co., Ltd. RC806D, stirring paddle method; • Drug permeation rate tester: Pion Inc μFlux™.
Since the pH of fasting intestinal fluid in a human body is 6.5 and the pH of blood is 7.4, in order to make the conditions under which the permeation rate was measured close to the environment of the human gastrointestinal tract, pH 6.8 phosphate buffer was selected as the medium in the experiment. 3 mg of progesterone monomers and cocrystals of progesterone equivalent to 3 mg of progesterone were accurately weighed, and respectively placed in a donor compartment that represents the gastrointestinal tract, and 20 ml of pH 6.8 phosphate buffer was accurately added. 20 ml of pH 7.4 ASB buffer was accurately added to a receptor compartment that represents blood. The two compartments were separated by a biomimetic membrane with an area of 1.54 cm^2. The biomimetic membrane was coated with 25 μl of simulated gastrointestinal liposomes for infiltration, which represents the cell membrane of the gastrointestinal tract. At the temperature of 37° C. and the stirring speed of 200 rpm, sampling was conducted for 4 h, with an interval of 60 s between each two sampling procedures. The drug concentration in the receptor compartment was measured with a fiber optic probe within the ultraviolet wavelength range of 250 to 350 nm. The artificial membrane permeation rate of the drug was calculated according to Formula 1 (J/Flux).
[formula] represents the rate of change of drug concentration in the receptor compartment per unit time (μg·mL^−1·min^−1); V is the volume of buffer in the receptor compartment (mL); A is the area of the biomimetic membrane (cm^2); and Ct is the initial concentration of the drug in the donor compartment (μg·mL^−1).
The level of drug permeability can be determined by comparing the permeability of the drug with that of metoprolol measured by the same method.

[2] = Determination of the dissolution rate (dissolution curves, stirring paddle method, HPLC); details: for time at which the highest concentration was reached / highest value of concentration of progesterone on dissolution curve: 37±0.5° C.; for highest value of concentration of progesterone on dissolution curve: 50 to 100 rpm
Procedure: as §1
The two dissolution media are water and pH 1.2 hydrochloric acid solution, respectively. […] The content of progesterone at the wavelength of 241 nm was measured by the HPLC method, and the dissolution amount was calculated by the external standard method. Dissolution curves with time as the abscissa and the concentration of progesterone as the ordinate were respectively plotted, as shown in FIGS. 5 and 6.

[3] = Determination of hygroscopicity by dynamic vapour sorption analysis; format: physicochemical; details: 25° C.
Procedure: The nitrogen flow rate was 200 ml/min, and the relative humidity, varied in a stepped manner by a change of 10%, increased from 20% to 80%, and then dropped to 0%.

[4] = pH 1.2 hydrochloric acid solution

| Compound | effective permeability (Pe) (in vitro) | permeation rate (J, Flux) (in vitro) | permeability level compared with metoprolol (in vitro) | permeation rate relative to the progesterone monomer (in vitro) | solubility relative to the progesterone monomer [2] | solubility relative to the progesterone monomer ([2]; pH 1.2) | time at which the highest concentration was reached [2, 4] | highest value of concentration of progesterone on dissolution curve [2, 4] | time at which the highest concentration was reached ([2]; water) | highest value of concentration of progesterone on dissolution curve ([2]; water) | Papp at 4 h, 150 µg/mL (in vitro) | other results |
| --- | --- | --- | --- | --- | --- | --- | --- | --- | --- | --- | --- | --- |
| progesterone-isophthalic acid cocrystal |  |  |  |  |  |  |  |  |  |  |  | Uterine index (weight of uterus / weight of rabbit) ([1]; 3.5 mg·kg^−1 intramuscular for 30 consecutive days, low dose group): 0.025 ± 0.009%; Uterine index (weight of uterus / weight of rabbit) ([1]; 7 mg·kg^−1 intramuscular for 30 consecutive days, medium dose group): 0.029 ± 0.009 %; Uterine index (weight of uterus / weight of rabbit) ([1]; 14 mg·kg^−1 intramuscular for 30 consecutive days (high dose group / positive control group)): 0.035 ± 0.008%; change of uterine index of rabbits as the dose increased ([1]; 3.5, 7 and 14 mg·kg^−1 intramuscular, 30 days): increasing trend; statistical difference in uterine index versus positive control group ([1]; high dose group, 14 mg·kg^−1): no significant difference; statistical difference in uterine index versus positive control group ([1]; low dose group, 3.5 mg·kg^−1): significant differences; statistical difference in uterine index versus positive control group ([1]; medium dose group, 7 mg·kg^−1): no significant difference |
| CC(=O)[C@H]1CC[C@H]2[C@@H]3CCC4=CC(=O)CC[C@]4(C)[C@H]3CC[C@]12C [progesterone, pregn-4-ene-3,20-dione] |  |  | high permeability |  |  |  | 120 min | 7.87 µg/mL | 120 min | 7.84 µg/mL | 1110 ×10⁻⁶ cm/s | permeation rate (J, Flux) (in vitro; 4 h, 150 µg/mL): 0.32 μg·min^−1·cm^−2; hygroscopicity ([3]; dynamic vapour sorption): non-hygroscopic; change in relative mass (dynamic vapour sorption) ([3]; relative humidity 20% to 80% then to 0% in 10% steps): less than 0.2% |

Further lines, with some results ahead:

| effective permeability (Pe) (in vitro) | permeation rate (J, Flux) (in vitro) | permeability level compared with metoprolol (in vitro) | permeation rate relative to the progesterone monomer (in vitro) | solubility relative to the progesterone monomer [2] | solubility relative to the progesterone monomer ([2]; pH 1.2) | time at which the highest concentration was reached [2, 4] | highest value of concentration of progesterone on dissolution curve [2, 4] | time at which the highest concentration was reached ([2]; water) | highest value of concentration of progesterone on dissolution curve ([2]; water) | Papp at 4 h, 150 µg/mL (in vitro) | Compound | other results |
| --- | --- | --- | --- | --- | --- | --- | --- | --- | --- | --- | --- | --- |
| 887 ×10⁻⁶ cm/s | 0.62 μg·min^−1·cm^−2 | high permeability | 1.9 times | 1.2 times | 1.1 times | 120 min | 8.77 µg/mL | 60 min | 9.06 µg/mL |  | CC(=O)[C@H]1CC[C@H]2[C@@H]3CCC4=CC(=O)CC[C@]4(C)[C@H]3CC[C@]12C.O=Cc1ccc(B(O)O)cc1 [progesterone-4-formylbenzeneboronic acid cocrystal] |  |
|  |  |  |  |  |  |  |  |  |  | 120 ×10⁻⁶ cm/s | COCCc1ccc(OCC(O)CNC(C)C)cc1 (stereo not shown) [metoprolol tartrate, reference compound] |  |
| 1460 ×10⁻⁶ cm/s | 0.28 μg·min^−1·cm^−2 | high permeability | 0.9 times | 1.3 times | 1.3 times | 30 min | 10.4 µg/mL | 90 min | 9.90 µg/mL |  | CC(=O)[C@H]1CC[C@H]2[C@@H]3CCC4=CC(=O)CC[C@]4(C)[C@H]3CC[C@]12C.O=C(O)c1cccc([N+](=O)[O-])c1C(=O)O [progesterone-3-nitrophthalic acid cocrystal] |  |
